Results reported in ChEMBL document CHEMBL1135696, “Isotopic effect study of propofol deuteration on the metabolism, activity, and toxicity of the anesthetic” (J Med Chem, 2002).

Columns and labels:
[1] = Lethal Dose in mice (in vivo); details: mouse
in vivo = details: mouse, 24 mg/kg
Description: Therapeutic index (24 mg/kg) in mice (in vivo)

[2] = Kinetic parameter, Km on human hepatic microsomes.; details: liver microsomes

[2H]c1cc(C(C)C)c(O)c(C(C)C)c1 [MONODEUTERATED PROPOFOL] gave an LD50 [1] of 39 mg/kg, a selectivity ratio (in vivo) of 3 and a Km [2] of 16.7 µM.
For CC(C)c1cccc(C(C)C)c1O [PROPOFOL], the LD50 [1] was 32 mg/kg, the selectivity ratio (in vivo) was 2.1 and the Km [2] was 12.3 µM.
Compound [2H]c1c([2H])c(C(C)C)c(O)c(C(C)C)c1[2H] [TRIDEUTERATED PROPOFOL] has an LD50 [1] of 35 mg/kg, a selectivity ratio (in vivo) of 2.7 and a Km [2] of 16.4 µM.
